Experiments:
Assay type in all cases: cell-based
HEL92.1.7 = experiment: Cell growth inhibition assay, blood cancer cell line HEL92.1.7; details: Homo sapiens, HEL 92.1.7, HEL92.1.7 blood cancer cell line
Outline: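 Cells were seeded at 3,000/well (HCT116, DU-145) or 5,000/well (SW626 and the others) and exposed to serial compound dilutions for 72 to 96 h at 37 °C under 5% CO2. Viability was read as CellTiter-Glo luminescence against 0.1% DMSO and cell-free wells.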

DU-145 = experiment: Cell growth inhibition assay, prostate cancer cell line DU-145; details: Homo sapiens, DU-145 prostate cancer cell line
Outline: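 Viability by CellTiter-Glo luminescence after 72–96 h of compound dosing at 37° C. under 5% CO2; DU-145 and HCT116 seeded at 3,000 cells/well, SW626 at 5,000 cells/well.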

MDA-MB-231 = experiment: Cell growth inhibition assay, breast cancer cell line MDA-MB-231; details: Homo sapiens; MDA-MB-231 breast cancer cell line, 5,000 cells/well
STAT3 = biological target: T1, STAT3 (Homo sapiens, UniProt P40763); experiment: STAT3 reporter gene assay (luciferase), LNCaP stable cell line (pSTAT3-TA-luc), IL-6 stimulation
T1 construct: plasmid pSTAT3-TA-luc), which contains a stably operating STAT3 promoter; endogenous in cells
Outline: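 Cytotoxicity was run on a duplicate plate with CellTiter-Glo, while the other plate gave luciferase read-outs from lysed LNCaP pSTAT3-TA-luc reporter cells. Cells were treated with graded compound concentrations plus IL-6 (10 ng/mL final) for 24–48 h in 3% DCC-FBS medium. Unstimulated and stimulated wells served as negative and positive controls.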

LNCaP = experiment: Cell growth inhibition assay, prostate cancer cell line LNCaP (medium with 10 ng/mL IL-6); details: Homo sapiens, medium supplemented with 10 ng/mL of IL-6, 10,000 cells/well
U266 = experiment: Cell growth inhibition assay, blood cancer cell line U266; details: Homo sapiens, U-266 blood cancer cell line
Method: (§1) The inhibitory effects of the compounds of the present invention against the growth of cancer cells were evaluated as shown below. The cancer cell lines including stomach cancer cell line (AGS), breast cancer cell lines (MDA-MB-231, MDA-MB-468, and BT-549), prostate cancer cell lines (LNCaP and DU-145), colon cancer cell line (HCT116), ovarian cancer cell line (SW626), liver cancer cell line (Hep3B), kidney cancer cell line (ACHN), lung cancer cell line (NCI-H23) and blood cancer cell lines (HEL92.1.7 and U266) were cultured under the protocol provided by each supplier. A medium supplemented with 10 ng/mL of IL-6 was used for LNCaP, a prostate cancer cell line, when treated with a drug. Each type of cells to be used in experiments were sub-cultured in a 96-well plate by counting the exact number of cells using Tali™ Image-based Cytometer (Life Technologies). In a 96-well plate, AGS, HCT116, and DU-145 were employed with 3,000 cells/well; NCI-H23, SW626, Hep3B, ACHN, BT-549, MDA-MB-231, HEL92.1.7, and U266 were employed with 5,000 cells/well; and LNCaP and MDA-MB-468 were employed with 10,000 cells/well. The cells were treated with the compounds listed in Examples which were diluted in various concentrations. Upon completion of the compounds treatment, AGS, HCT116, SW626, DU145, NCI-H23, Hep3B, ACHN, BT-549, LNCaP, HEL92.1.7, and U266 cells were cultured at 37° C. under 5% CO2 for from 72 to 96 hours, and MDA-MB-231 and MDA-MB-468 cells were cultured at 37° C. in air for from 72 to 96 hours. Subsequently, the cells were observed under microscope and drug precipitation and particular findings were investigated and recorded. And then, the 96-well plate was placed at room temperature for 30 minutes, added with 20 μL/well of CellTiter-Glo solution (Cat No. G7573, Promega) and shaken for 10 minutes, followed by being subjected to the measurement using PHERAstar™ microplate reader (BMG LABTECH) according to the supplier's general luminometer protocol. Wells where only culture liquid added without cell plating were used as a negative control, whereas wells where culture liquid containing 0.1% DMSO instead of the compounds listed in Examples were used as a positive control.

Hep3B = experiment: Cell growth inhibition assay, liver cancer cell line Hep3B; details: Homo sapiens
Method: as §1

BT-549 = experiment: Cell growth inhibition assay, breast cancer cell line BT-549; details: Homo sapiens, BT-549 breast cancer cell line
Method: as §1

MDA-MB-468 = experiment: Cell growth inhibition assay, breast cancer cell line MDA-MB-468; details: Homo sapiens, MDA-MB-468 breast cancer cell line
Method: as §1

T1 sequence (P40763 whole entry): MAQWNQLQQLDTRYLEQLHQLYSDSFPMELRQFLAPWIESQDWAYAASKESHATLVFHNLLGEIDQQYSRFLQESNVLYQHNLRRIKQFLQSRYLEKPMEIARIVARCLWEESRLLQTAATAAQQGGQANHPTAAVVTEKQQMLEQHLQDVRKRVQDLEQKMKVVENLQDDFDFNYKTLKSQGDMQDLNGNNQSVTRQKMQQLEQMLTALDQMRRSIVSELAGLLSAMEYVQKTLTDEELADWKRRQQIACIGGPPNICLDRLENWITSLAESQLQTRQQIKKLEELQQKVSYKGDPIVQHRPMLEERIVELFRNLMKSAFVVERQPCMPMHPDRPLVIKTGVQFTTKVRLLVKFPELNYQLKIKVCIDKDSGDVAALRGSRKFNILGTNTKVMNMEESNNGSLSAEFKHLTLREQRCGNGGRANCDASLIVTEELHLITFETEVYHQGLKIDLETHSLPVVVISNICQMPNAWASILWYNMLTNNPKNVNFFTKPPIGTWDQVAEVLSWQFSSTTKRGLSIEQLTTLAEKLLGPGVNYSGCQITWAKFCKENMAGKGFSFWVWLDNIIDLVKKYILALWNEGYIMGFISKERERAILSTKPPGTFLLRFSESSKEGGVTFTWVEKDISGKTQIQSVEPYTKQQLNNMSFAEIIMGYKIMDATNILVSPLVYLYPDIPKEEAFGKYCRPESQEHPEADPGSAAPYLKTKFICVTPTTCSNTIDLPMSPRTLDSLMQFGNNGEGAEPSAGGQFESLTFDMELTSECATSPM

Structure (SMILES) | IC50 (HEL92.1.7) [µM] | IC50 (DU-145) [µM] | IC50 (MDA-MB-231) [µM] | IC50 (STAT3) [µM] | IC50 (LNCaP) [µM] | IC50 (U266) [µM] | IC50 (Hep3B) [µM] | IC50 (BT-549) [µM] | IC50 (MDA-MB-468) [µM]
COc1cc(OC(F)(F)F)cc(C(C)(C)c2cc(Cl)cc(NC(=O)c3cc4ccc(NS(C)(=O)=O)cc4[nH]3)c2)c1 [Example 24, N-(3-chloro-5-(2-(3-methoxy-5-(trifluoromethoxy)phenyl)propan-2-yl)phenyl)-6-(methylsulfonamido)-1H-indole-2-carboxamide] | 0.12 | 0.044 | 0.027 | 0.051 | 0.083 | 0.13 | – | – | –
COc1cc(OC(F)(F)F)cc(C(C)(C)c2cccc(NC(=O)c3cc4ccc(NS(C)(=O)=O)cc4[nH]3)c2)c1 [Example 9, N-(3-(2-(3-methoxy-5-(trifluoromethoxy)phenyl)propan-2-yl)phenyl)-6-(methylsulfonamido)-1H-indole-2-carboxamide] | 0.95 | 0.035 | 0.012 | 0.056 | 0.78 | 0.74 | – | – | –
CC(C)(c1cccc(CN2CCOCC2)c1)c1cc(Br)cc(NC(=O)c2cc3cc(NS(C)(=O)=O)ccc3s2)c1 [Example 50, N-(3-bromo-5-(2-(3-(morpholinomethyl)phenyl)propan-2-yl)phenyl)-5-(methylsulfonamido)benzo[b]thiophene-2-carboxamide] | 0.83 | 0.36 | 0.24 | 0.15 | 0.76 | 0.84 | – | – | –
CCOc1cc(OC(F)(F)F)cc(C(C)(C)c2cc(Br)cc(NC(=O)c3cc4ccc(NS(C)(=O)=O)cc4[nH]3)c2)c1 [Example 22, N-(3-bromo-5-(2-(3-ethoxy-5-(trifluoromethoxy)phenyl)propan-2-yl)phenyl)-6-(methylsulfonamido)-1H-indole-2-carboxamide] | 0.13 | 0.048 | 0.007 | 0.11 | 0.29 | 0.13 | – | – | –
CC(C)(C)OC(=O)N1CCN(Cc2cccc(C(C)(C)c3cc(Br)cc(NC(=O)c4cc5cc(NS(C)(=O)=O)ccc5s4)c3)c2)CC1 [Example 116, tert-butyl 4-(3-(2-(3-bromo-5-(5-(methylsulfonamido)benzo[b]thiophene-2-carboxamido)phenyl)propan-2-yl)benzyl)piperazine-1-carboxylate] | 0.13 | 0.058 | 0.055 | 0.053 | 0.22 | 0.16 | – | – | –
COc1cc(NC(=O)c2cc3cc(NS(C)(=O)=O)ccc3s2)cc(C(C)(C)c2cc(OC)cc(OC(F)(F)F)c2)c1 [Example 34, N-(3-methoxy-5-(2-(3-methoxy-5-(trifluoromethoxy)phenyl)propan-2-yl)phenyl)-5-(methylsulfonamido)benzo[b]thiophene-2-carboxamide] | 0.2 | 0.023 | 0.007 | 0.051 | 0.24 | 0.29 | 0.028 | 3.4 | < 0.00064
CCOc1cc(OC(F)(F)F)cc(C(C)(C)c2cc(Br)cc(NC(=O)c3cc4cc(NS(C)(=O)=O)ccc4s3)c2)c1 [Example 48, N-(3-bromo-5-(2-(3-ethoxy-5-(trifluoromethoxy)phenyl)propan-2-yl)phenyl)-5-(methylsulfonamido)benzo[b]thiophene-2-carboxamide] | 0.026 | 0.008 | 0.002 | 0.007 | 0.077 | 0.044 | – | – | –
COc1cc(OC(F)(F)F)cc(C(C)(C)c2cc(Br)cc(NC(=O)c3cc4cnc(NS(C)(=O)=O)cc4[nH]3)c2)c1 [Example 98, N-(3-bromo-5-(2-(3-methoxy-5-(trifluoromethoxy)phenyl)propan-2-yl)phenyl)-6-(methylsulfonamido)-1H-pyrrolo[3,2-c]pyridine-2-carboxamide] | 0.86 | 0.31 | 0.59 | 0.098 | 0.76 | 0.56 | – | – | –
CC(C)Oc1cc(CN2CCN(c3noc(C(C)C)n3)CC2)cc(C(C)(C)c2cc(Cl)cc(NC(=O)c3cc4cc(NS(C)(=O)=O)ccc4s3)c2)c1 [Example 129, N-(3-chloro-5-(2-(3-isopropoxy-5-((4-(5-isopropyl-1,2,4-oxadiazol-3-yl)piperazin-1-yl)methyl)phenyl)propan-2-yl)phenyl)-5-(methylsulfonamido)benzo[b]thiophene-2-carboxamide] | 0.24 | 0.06 | – | 0.07 | 0.12 | 0.28 | – | – | –
CC(C)COc1cc(OC(F)(F)F)cc(C(C)(C)c2cc(Cl)cc(NC(=O)c3cc4cc(NS(C)(=O)=O)ccc4s3)c2)c1 [Example 72, N-(3-chloro-5-(2-(3-isobutoxy-5-(trifluoromethoxy)phenyl)propan-2-yl)phenyl)-5-(methylsulfonamido)benzo[b]thiophene-2-carboxamide] | 0.087 | 0.006 | – | 0.021 | 0.034 | 0.1 | – | – | –
CC(C)Oc1cc(OC(F)(F)F)cc(C(C)(C)c2cc(Br)cc(NC(=O)c3cc4cc(NS(C)(=O)=O)ccc4s3)c2)c1 [Example 49, N-(3-bromo-5-(2-(3-isopropoxy-5-(trifluoromethoxy)phenyl)propan-2-yl)phenyl)-5-(methylsulfonamido)benzo[b]thiophene-2-carboxamide] | 0.023 | 0.007 | 0.001 | 0.007 | 0.049 | 0.014 | – | – | –
CC(C)Oc1cc(OC(F)(F)F)cc(C(C)(C)c2cc(Cl)cc(NC(=O)c3cc4cc(NS(C)(=O)=O)ccc4s3)c2)c1 [Example 68, N-(3-chloro-5-(2-(3-isopropoxy-5-(trifluoromethoxy)phenyl)propan-2-yl)phenyl)-5-(methylsulfonamido)benzo[b]thiophene-2-carboxamide] | 0.024 | 0.006 | 0.041 | 0.011 | 0.019 | 0.019 | – | – | –
CC(C)Oc1cc(CN2CCN(C(=O)OC(C)(C)C)CC2)cc(C(C)(C)c2cc(Br)cc(NC(=O)c3cc4cc(NS(C)(=O)=O)ccc4s3)c2)c1 [Example 123, tert-butyl 4-(3-(2-(3-bromo-5-(5-(methylsulfonamido)benzo[b]thiophene-2-carboxamido)phenyl)propan-2-yl)-5-isopropoxybenzyl)piperazine-1-carboxylate] | 0.11 | 0.042 | – | 0.046 | 0.15 | 0.13 | – | – | –
COc1cc(OC(F)(F)F)cc(C(C)(C)c2cc(Cl)cc(NC(=O)c3cc4cc(NS(C)(=O)=O)ccc4s3)c2)c1 [Example 42, N-(3-chloro-5-(2-(3-methoxy-5-(trifluoromethoxy)phenyl)propan-2-yl)phenyl)-5-(methylsulfonamido)benzo[b]thiophene-2-carboxamide] | 0.044 | 0.009 | 0.005 | 0.007 | 0.032 | 0.023 | – | – | –

Source: patent US10562912B2 (C&C Research Laboratories, priority 2013, dated 2020)
